Reference: PMC3813752 (PLoS ONE, 2013)
Like-named read-outs stand apart in the source and are kept apart here.

Columns and labels:
human CB1 receptor = human CB1 receptor (Homo sapiens, UniProt P21554); test: biochemical; assay type: binding; conditions: for Ki: membranes of CHO cells expressing human CB1, three independent experiments in duplicates, read-out: Ki CB1, heterologous competition vs. [3H]CP55,940; for inhibition at 10 µM: vs. [3H]CP55,940, read-out: % inhibition of radioligand binding at CB1
human GPR18 [1] = biological target: T1, human GPR18 (Homo sapiens, UniProt Q14330); test: cell-based; conditions: for inhibition at 10 µM: CHO, read-out: % inhibition of Δ9-THC (10 µM)-induced β-arrestin recruitment at GPR18, test compound at 10 µM; for IC50: GPR18 IC50, β-arrestin recruitment, antagonist mode vs. Δ9-THC (10 µM)
T1 sequence (Q14330 1-331): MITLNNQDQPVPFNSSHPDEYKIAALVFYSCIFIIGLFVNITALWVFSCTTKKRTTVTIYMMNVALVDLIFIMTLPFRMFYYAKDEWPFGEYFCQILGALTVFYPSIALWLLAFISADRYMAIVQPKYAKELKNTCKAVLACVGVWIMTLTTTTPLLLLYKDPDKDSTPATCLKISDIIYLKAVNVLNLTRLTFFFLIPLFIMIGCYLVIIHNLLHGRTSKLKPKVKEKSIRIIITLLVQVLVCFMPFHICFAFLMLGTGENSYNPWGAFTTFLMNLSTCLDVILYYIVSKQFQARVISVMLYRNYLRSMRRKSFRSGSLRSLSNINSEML

human CB2 receptor = human CB2 receptor (Homo sapiens, UniProt P34972); test: Radioligand binding (heterologous competition) vs. [3H]CP55,940 at CB2; conditions: for Ki: three independent experiments in duplicates
human GPR18 [2] = biological target: T1, human GPR18; conditions: test compound 10 µM, related to effect of Δ9-THC 10 µM = 100%
human GPR55 = human GPR55 (Homo sapiens, UniProt Q9Y2T6); test: β-arrestin recruitment assay (PathHunter), CHO cells expressing GPR55; conditions: for inhibition at 10 µM: CHO, read-out: % inhibition of LPI (1 µM)-induced β-arrestin recruitment at GPR55, test compound at 10 µM; for IC50: GPR55 IC50, β-arrestin recruitment, antagonist mode vs. LPI (1 µM); for agonist effect on β-arrestin recruitment at GPR55: test compound 10 µM, related to effect of LPI 1 µM = 100%
[3] = membranes of CHO cells expressing human CB2, read-out: Ki CB2, heterologous competition vs. [3H]CP55,940
[4] = Ki CB2, heterologous competition vs. [3H]CP55,940, membranes of CHO cells expressing human CB2

Sequence of human GPR55 (Q9Y2T6 whole entry): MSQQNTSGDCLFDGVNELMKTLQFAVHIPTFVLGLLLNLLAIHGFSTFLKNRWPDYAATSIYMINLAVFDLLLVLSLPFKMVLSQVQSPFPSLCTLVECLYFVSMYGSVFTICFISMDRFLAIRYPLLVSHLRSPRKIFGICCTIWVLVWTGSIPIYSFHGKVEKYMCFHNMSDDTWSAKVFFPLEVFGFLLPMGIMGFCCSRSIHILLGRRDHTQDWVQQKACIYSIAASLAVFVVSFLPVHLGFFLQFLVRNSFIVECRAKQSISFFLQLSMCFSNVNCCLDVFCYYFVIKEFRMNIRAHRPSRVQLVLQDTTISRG
Sequence of human CB2 receptor (P34972 whole entry): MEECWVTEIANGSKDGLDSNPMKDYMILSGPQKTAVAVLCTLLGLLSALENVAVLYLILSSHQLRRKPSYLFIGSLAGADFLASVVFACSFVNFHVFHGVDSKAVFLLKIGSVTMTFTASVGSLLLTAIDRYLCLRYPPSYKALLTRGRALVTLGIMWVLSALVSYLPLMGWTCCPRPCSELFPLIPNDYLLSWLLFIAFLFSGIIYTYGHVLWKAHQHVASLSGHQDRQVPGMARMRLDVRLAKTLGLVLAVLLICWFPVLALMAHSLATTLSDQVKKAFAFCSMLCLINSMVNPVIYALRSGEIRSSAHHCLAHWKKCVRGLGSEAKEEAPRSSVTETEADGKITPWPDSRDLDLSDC
Sequence of human CB1 receptor (P21554 whole entry): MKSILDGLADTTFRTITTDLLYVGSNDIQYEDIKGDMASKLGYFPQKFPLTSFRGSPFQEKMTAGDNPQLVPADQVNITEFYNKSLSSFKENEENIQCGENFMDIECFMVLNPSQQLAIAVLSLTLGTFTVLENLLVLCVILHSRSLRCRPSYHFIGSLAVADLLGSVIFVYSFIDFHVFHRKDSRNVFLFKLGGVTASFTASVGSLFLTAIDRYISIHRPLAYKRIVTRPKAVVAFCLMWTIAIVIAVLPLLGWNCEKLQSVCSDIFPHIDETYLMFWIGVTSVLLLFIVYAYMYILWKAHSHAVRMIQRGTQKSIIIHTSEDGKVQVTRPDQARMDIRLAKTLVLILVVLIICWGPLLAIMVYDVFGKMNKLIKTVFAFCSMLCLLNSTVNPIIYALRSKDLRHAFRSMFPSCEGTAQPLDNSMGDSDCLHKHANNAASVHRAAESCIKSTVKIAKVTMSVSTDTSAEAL

Compound | Ki (human CB1 receptor) [µM] | EC50 (human GPR18 [1]) [µM] | inhibition at 10 µM (human GPR18 [1]) [%] | IC50 (human GPR18 [1]) [µM] | Ki (human CB2 receptor; [3]) [µM] | agonist effect on β-arrestin recruitment at GPR18 (human GPR18 [2]) [%] | EC50 (human GPR55) [µM] | inhibition at 10 µM (human GPR55) [%] | IC50 (human GPR55) [µM] | agonist effect on β-arrestin recruitment at GPR55 (human GPR55) [%] | inhibition at 10 µM (human CB1 receptor) [%] | Ki (human CB2 receptor; [4]) [µM] | selectivity for CB2 receptors over CB1 (human CB2 receptor; from Ki values) [fold]
CCCCCCc1ccc(O)c(-c2ccccc2O)c1 [Compound 49] | 6.63 ± 5.03 | > 10 | 48 | ~10 | 1.5 ± 0.64 | 0 | > 10 | 34 | > 10 | 39 |  |  | 
CCCc1ccc(O)c(-c2cc(C)ccc2O)c1 [Compound 50] | > 1 | > 10 | 21 | > 10 |  | 0 | > 10 | 4 | > 10 | 26 | 20 | 7.38 ± 2.76 | 
CCCCc1ccc(O)c(-c2cc(C)ccc2O)c1 [Compound 51] | ~1 | > 10 | 44 | ~10 | 1.69 ± 0.53 | 0 | > 10 | 0 | > 10 | 18 | 44 |  | 
CCCCCc1ccc(O)c(-c2cc(C)ccc2O)c1 [Compound 52] | 1.23 ± 0.47 | > 10 | 45 | ~10 | 0.517 ± 0.101 | 0 | > 10 | 0 | > 10 | 9 |  |  | 
CCCCCCc1ccc(O)c(-c2cc(C)ccc2O)c1 [Compound 53] | 0.822 ± 0.224 | > 10 | 118 | 11.5 ± 1.3 | 0.273 ± 0.096 | 0 | > 10 | 0 | > 10 | 28 |  |  | 
CCCc1ccc(O)c(-c2cc(CC)ccc2O)c1 [Compound 54] | ~1 | > 10 | 67 | 10.5 ± 0.9 | 0.856 ± 0.367 | 0 | > 10 | 19 | > 10 | 0 | 43 |  | 
CCCCc1ccc(O)c(-c2cc(CC)ccc2O)c1 [Compound 55] | 5.76 ± 2.85 | > 10 | 40 | ~10 | 0.235 ± 0.101 | 0 | > 10 | 18 | > 10 | 2 |  |  | ~25
CCCCCc1ccc(O)c(-c2cc(CC)ccc2O)c1 [Compound 56] | 0.634 ± 0.297 | > 10 | 95 | 13.6 ± 0.7 | 0.161 ± 0.033 | 0 | > 10 | 2 | > 10 | 3 |  |  | 
CCCCCCc1ccc(O)c(-c2cc(CC)ccc2O)c1 [Compound 57] | 0.386 ± 0.029 | > 10 | 113 | 12.5 ± 0.8 |  | 0 | > 10 | 0 | > 10 |  |  | 0.083 ± 0.0118 | 
CCCCc1ccc(O)c(-c2cc(CCC)ccc2O)c1 [Compound 58] | 3.61 ± 0.17 | > 10 | 104 | 13.5 ± 1.7 | 0.468 ± 0.133 | 0 | > 10 | 44 | ~10 | 21 |  |  | 
CCCc1ccc(O)c(-c2cc(C(C)(C)C)ccc2O)c1 [Compound 59] | 5.81 ± 2.67 | > 10 | 54 | ~10 | 0.489 ± 0.049 | 0 | > 10 | 54 | ~10 | 0 |  |  | 
